According to US7723070B2, “Overexpression of aminoacyl-tRNA synthetases for efficient production of engineered proteins containing amino acid analogues” (California Institute of Technology, priority 2000, dated 2010):
Entries after “also recorded” stand apart in the source; their conditions may differ.

Biological target: T1, methionyl tRNA synthetase (MetRS) (Escherichia coli, UniProt P00959)
T1 sequence (P00959 1-548 limits assumed): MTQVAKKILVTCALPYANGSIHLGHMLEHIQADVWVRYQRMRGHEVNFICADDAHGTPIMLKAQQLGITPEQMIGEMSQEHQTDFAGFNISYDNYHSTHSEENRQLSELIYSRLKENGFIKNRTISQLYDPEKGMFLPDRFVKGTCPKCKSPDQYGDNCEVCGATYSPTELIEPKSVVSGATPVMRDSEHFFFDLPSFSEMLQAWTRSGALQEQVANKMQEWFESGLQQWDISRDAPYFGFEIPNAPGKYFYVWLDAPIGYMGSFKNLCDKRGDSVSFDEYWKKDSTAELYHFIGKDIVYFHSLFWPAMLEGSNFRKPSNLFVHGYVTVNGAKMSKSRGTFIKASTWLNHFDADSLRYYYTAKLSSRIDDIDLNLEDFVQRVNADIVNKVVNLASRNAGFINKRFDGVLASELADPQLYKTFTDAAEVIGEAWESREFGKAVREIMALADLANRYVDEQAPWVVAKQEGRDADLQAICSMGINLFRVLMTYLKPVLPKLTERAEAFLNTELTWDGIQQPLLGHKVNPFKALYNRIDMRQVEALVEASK
Assay: ATP-PPi exchange assay: activation of methionine and methionine analogues by MetRS
Format: biochemical, E. coli
Design: The fully active, truncated form of methionyl tRNA synthetase (MetRS) was purified from overnight cultures of JM101 cells carrying the plasmid pGG3; made in house; host or cells: E. coli JM101 carrying plasmid pGG3
Settings: for fold lower kcat/Km (less efficiently activated) than methionine: relative to methionine
Description: The fully active, truncated form of methionyl tRNA synthetase (MetRS) was purified from overnight cultures of JM101 cells carrying the plasmid pGG3. (The plasmid, which encodes the tryptic fragment of MetRS, Ghosh, G.; Brunie, S.; Schulman, L. H. J. Biol. Chem. 1991, 266, 17136-17141). The enzyme was purified by size exclusion chromotography as previously described (Mellot, P.; Mechulam, Y.; LeCorre, D.; Blanquet, S.; Fayat, G. J. Mol. Biol. 1989, 208, 429). Activation of methionine analogues by MetRS was assayed via the amino-acid-dependent ATP-PPi exchange reaction, also as previously described (Mellot, P.; Mechulam, Y.; LeCorre, D.; Blanquet, S.; Fayat, G. J. Mol. Biol. 1989, 208, 429; Blanquet, S.; Fayat, G.; Waller, J.-P. Eur. J. Biochem. 1974, 44, 343; Ghosh, G.; Pelka, H.; Schulman, L. H. Biochemistry 1990, 29, 2220). The assay, which measures the ^32P-radiolabeled ATP formed by the enzyme-catalyzed exchange of ^32P-pyrophosphate (PPi) into ATP, was conducted in 150 μl of reaction buffer (pH 7.6, 20 mM imidazole; 0.1 mM EDTA, 10 mM β-mercaptoethanol, 7 mM MgCl2, 2 mM ATP, 0.1 mg/ml BSA, and 2 mM PPi (in the form of sodium pyrophosphate with a specific activity of approximately 0.18 TBq/mole)). […] Kinetic parameters for analogue 5 were obtained with an enzyme concentration of 75 nM and analogue concentrations of 100 μM to 10 mM. Parameters for methionine were obtained by using concentrations ranging from 10 μM to 1 mM. […] Aliquots of 20 μl were removed from the reaction mixture at various time points and were quenched in 0.5 ml of a solution comprising 200 mM PPi, 7% w/v HClO4, and 3% w/v activated charcoal. The charcoal was rinsed twice with 0.5 mL of a 10 mM PPi, 0.5% HClO4 solution and was then resuspended in 0.5 mL of this solution and counted via liquid scintillation methods. Kinetic constants were calculated by nonlinear regression analysis.
The fully active, truncated form of MetRS was purified from overnight cultures of JM101 cells carrying the plasmid pGG3. The enzyme was purified by size exclusion chromotography as previously described (P. Mellot, Y. Mechulam, D. LeCorre, S. Blanquet, G. Fayat, J. Mol. Biol. 1989, 208, 429-443). Activation of methionine analogues by MetRS was assayed at 25° C. via the amino acid-dependent ATP-PPi exchange reaction, also as described in Example I (G. Ghosh, H. Pelka, L. H. Schulman, Biochemistry 1990, 29, 2220-2225). […] Kinetic parameters for analogue 5 were obtained with an enzyme concentration of 50 nM and analogue concentrations of 100 μM to 10 mM. Kinetic parameters for analogue 11 were determined using an enzyme concentration of 50 nM and analogue concentrations ranging from 750 μM to 20 mM. Kinetic parameters for analogues 4, 7, 8, and 12 were obtained with an enzyme concentration of 50 or 75 nM and analogue concentrations ranging from 5 to 70 mM. Parameters for methionine were obtained by using concentrations ranging from 10 μM to 1 mM. […] Kinetic constants were calculated by nonlinear regression analysis.
The fully active, truncated form of MetRS was purified from overnight cultures of E. coli JM101 cells carrying the plasmid pGG3 (Kim, H. Y.; Ghosh, G.; Schulman, L. H.; Brunie, S.; Jakubowski, H. Proc. Natl. Acad. Sci. USA 1993, 90, 11553-11557), by using size exclusion methods previously reported (Mellot, P.; Mechulam, Y.; LeCorre, D.; Blanquet, S.; Fayat, G. J. Mol. Biol. 1989, 208, 429-443). Purified enzyme solutions (in 10 mM phosphate, pH 6.7, 10 mM (β-mercaptoethanol) were concentrated to at least 3 μM prior to their storage in 40% glycerol at −20° C. Concentrations of enzyme stocks were determined by the Bradford method, using samples of MetRS quantified by amino acid analysis as standards.

[1] = 75 nM enzyme, 5 mM L-isomer, 20 minutes
[2] = ATP-PPi exchange, purified truncated MetRS

Compound | fold lower kcat/Km (less efficiently activated) than methionine [fold] | rate/level of PPi exchange (activation by MetRS), in words [1] | other results
CCCC[C@H](N)C(=O)O [Analogue 9, L-norleucine] | 1050 |  | 
CSCC[C@H](N)C(=O)O [Analogue 1, L-methionine, reference compound] |  |  | amount of PPi exchanged at a reaction time of 20 minutes [1]: 9 mmol
C/C=C/CC(N)C(=O)O (racemic) [Analogue 5, trans-2-amino-4-hexenoic acid] | 4700 | very slow exchange of PPi; also recorded: neither recognized efficiently; also recorded: slow exchange of PPi | 
CCCCCC(N)C(=O)O (racemic) [Analogue 7, DL-2-aminoheptanoic acid] |  | very slow exchange of PPi | 
2-butynylglycine [Analogue 11] | 13825 | very slow exchange of PPi; also recorded: slow exchange of PPi | Km [2]: 38.6 mM; kcat [2]: 1.51 ± 0.5 s⁻¹
C=CCCC(N)C(=O)O (racemic) [Analogue 2, DL-2-amino-5-hexenoic acid] | 1850 | rates similar to that of norleucine (9); also recorded: several-fold lower than methionine | 
C/C=C\CC(N)C(=O)O (racemic) [Analogue 4, cis-2-amino-4-hexenoic acid] |  | does not cause measurable exchange of PPi; also recorded: very slow exchange of PPi | 
CCC[C@H](N)C(=O)O [Analogue 8, L-norvaline] |  | very slow exchange of PPi | 
C#CCCC(N)C(=O)O (racemic) [Analogue 3, DL-homopropargylglycine] | 500 | rates similar to that of norleucine (9); also recorded: several-fold lower than methionine | 
C=CCC(N)C(=O)O (stereo not shown) [Analogue 12, allylglycine] |  | very slow exchange of PPi | 
